Results as given in US5705649A, “Protein staining compositions and methods” (Promega Corporation, priority 1995, dated 1998).

Tests used:
[1] = tested on: Promega Mid-Range Molecular Weight Standards; assay: Post-electrophoretic detection of protein using NBODY derivatives; conditions: crude dye solution in 5% acetic acid, 20% ethanol, one hour
Procedure: Promega Mid-Range Molecular Weight Standards were diluted and heated as described in Example 27 to produce solutions containing 125, 25, 5 and 1 ng of protein per band in 10 microliters of solution. A 10% Tris Glycine, precast polyacrylamid gel from Novex Corp. (San Diego, Calif., USA, Cat. No. EC 6075.) was loaded with 10 microliters of the just described, diluted molecular weight standard solutions in lanes so that two lanes, each with the same diluted standard solution, were separated by a blank lane. The gel was developed using conditions recommended by the manufacturer and following development, the gel was cut in the blank lane. The segments were placed in 50 ml of 5% acetic acid, 20% ethanol. Six hundred microliters of the NBODY-C12 reaction mixture from Example 40 was added to the solution with one of the segments of a pair (of lanes with the same protein molecular weight standard solution) and three hundred microliters of the NBODY-C16 reaction mixture from Example 40 was added to the solution with the other segment of the same pair. After one hour of incubation, the gel segments were photographed on a transilluminator as described in example 27. Protein bands were detected in the lanes containing the 125 and 25 ng of protein per band using this method and the crude dye solutions from Example 40.

[2] = tested on: Promega Mid-Range Molecular Weight Markers; assay: Sensitive post-electrophoretic detection of protein using purified NBODY dye
Procedure: A 12% SDS-PAGE gel was prepared as described in Example 27 and was loaded with dilute Promega Mid-Range Molecular Weight Markers (diluted and heated as in Example 27) to produce lanes which contained 100, 80, 60, 40, 20, 10 and 5 ng of protein per band. The gel was run in a BioRad Miniprotean II gel system at 50V for 1.5 hr. then 125V until the tracking dye reached the bottom of the gel. After the dye reached the bottom of the gel, the gel was removed from the apparatus and placed in 50 ml of 5% acetic acid, 20% ethanol.
The NBODY dye prepared as in Example 40 with n-dodecyl amine was purified by applying 2 ml of the NBODY-C12 reaction mixture from Example 40 3cm from one edge of a 25×25cm silica gel plate (Sigma Chemical Co., St. Louis, […]., USA). The plate was developed using a 6:1 ratio of tolulene:ethyl acetate. […]
After 30 minutes in the 5% acetic acid, 20 % ethanol, the gel was removed from that solution and replaced with a solution containing the purified NBODY-C12 stain with the following composition: one ml of purified NBODY-C12 solution was placed in 50 ml of 35% ethanol, 5% acetic acid. […] After one hour in the water solution, the gel was scanned on a Molecular Dynamics Fluoroimager (Molecular Dynamics, Sunnyvale, Calif.), which excites fluorescence with laser light of 483 nm wavelength.

[3] = tested on: Promega Mid-Range Molecular Weight Standards; assay: Detection of proteins during SDS-PAGE with Acid Blue 25 dyes; conditions: 0.01% (w/v) in cathode buffer (Example 23)
From the text: Ten μl of each solution was loaded into lanes of the three gels, and they were placed into three separate Bio-Rad Miniprotean II gel apparati (Bio-Rad, Richmond, Calif., USA) with the cathode solutions containing 1.0, 0.75, or 0.5% (v/v) of the derivatized Acid Blue 25 preparation (unpurified). The samples were then fractionated within the gels by application of 15 mA of current per gel.

Row | Structure (SMILES) | lowest protein per band detected [1] | visibility of protein bands ([2]; lanes of 100 to 5 ng per band) | detection limit ([2]; purified dye in 35% ethanol, 5% acetic acid, one hour, water one hour, Fluoroimager 483 nm) | visibility of protein bands during electrophoresis [3]
1 | CCCCCCCCCCCCNC(=O)CCCCCNc1ccc([N+](=O)[O-])c2nonc12 [NBODY-C12] | 25 ng | Protein bands were seen for all of the protein species in the lanes containing all protein concentrations | lower than 5 ng | 
2 | Nc1c(S(=O)(=O)O)cc(Nc2ccccc2)c2c1C(=O)c1ccccc1C2=O [unmodified Acid Blue 25] |  |  |  | no protein bands were seen
